Results: patent US20240116985A1, “STAPLED PEPTIDES AND METHODS THEREOF” (priority 2020, published 2024)

Tests used:
[1] = target: T1, full-length B-Catenin (Uniprot ID P35222) (Homo sapiens, UniProt P35222); experiment: Alphascreen binding assay (beta-catenin / biotin-TCF4 10-53)
T1 construct: 65 nM full-length B-Catenin (Uniprot ID P35222)
T1 sequence (P35222 1-781): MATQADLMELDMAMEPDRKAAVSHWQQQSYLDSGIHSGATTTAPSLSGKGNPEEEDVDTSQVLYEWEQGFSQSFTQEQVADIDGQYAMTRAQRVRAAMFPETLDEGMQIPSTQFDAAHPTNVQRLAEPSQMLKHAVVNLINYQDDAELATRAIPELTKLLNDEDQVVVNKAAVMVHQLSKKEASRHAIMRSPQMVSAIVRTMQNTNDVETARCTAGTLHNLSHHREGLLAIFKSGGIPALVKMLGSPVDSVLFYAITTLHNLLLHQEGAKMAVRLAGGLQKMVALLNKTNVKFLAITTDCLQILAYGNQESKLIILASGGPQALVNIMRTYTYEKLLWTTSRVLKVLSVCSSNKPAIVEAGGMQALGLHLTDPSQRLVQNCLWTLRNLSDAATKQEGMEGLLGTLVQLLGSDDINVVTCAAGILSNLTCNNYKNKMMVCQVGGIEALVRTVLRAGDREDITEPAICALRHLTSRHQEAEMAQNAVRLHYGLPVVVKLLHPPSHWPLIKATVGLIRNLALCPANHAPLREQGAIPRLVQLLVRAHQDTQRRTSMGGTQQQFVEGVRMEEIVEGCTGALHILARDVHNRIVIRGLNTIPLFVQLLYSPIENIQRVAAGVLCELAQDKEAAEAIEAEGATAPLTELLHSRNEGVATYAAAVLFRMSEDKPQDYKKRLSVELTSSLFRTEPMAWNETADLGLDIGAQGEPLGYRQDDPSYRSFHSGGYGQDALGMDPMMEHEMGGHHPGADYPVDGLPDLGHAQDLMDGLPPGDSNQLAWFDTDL
Summary of the method: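 Final concentrations: 65 nM full-length human β-catenin plus 10 nM biotin-TCF4(10-53) peptide, test peptide 3-fold from 10 uM to 5 nM, preincubated 15 min at 20 °C in Tris pH 8.0/250 mM NaCl buffer. Nickel-chelate AlphaScreen donor/acceptor beads then added for 60 min in the dark; duplicate reads fitted to 1:1 binding model with Hill slope.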

CHI Log D procedure = format: physicochemical; details: for CHI Log D: pH 7.4; for chromatographic logD: pH 7.4, CHI Log D

Structure (SMILES)	EC50 [1]	CHI Log D (CHI Log D procedure)	chromatographic logD (CHI Log D procedure)
CC(=O)N1CCC[C@]12CC=CCCCC1(CCCC=CCCCCCC[C@@](C)(C(=O)N[C@@H](Cc3ccccc3)C(=O)N[C@@H](Cc3c[nH]c4ccccc34)C(=O)N[C@@H](CCC(N)=O)C(N)=O)NC(=O)[C@H](C(C)C)NC(=O)[C@H](Cc3ccccc3)NC(=O)[C@H](C)NC(=O)[C@H](C)NC(=O)[C@H](CCC(=O)O)NC(=O)[C@H](CC(=O)O)NC1=O)NC(=O)[C@H](C)NC(=O)[C@H](CC(N)=O)NC2=O (stereo partly drawn) [I-199, Ac-PL3-Asn-Ala-B5-Asp-Glu-Ala-Ala-Phe-Val-S8-Phe-Trp-Gln-NH2]	796 nM	2.262	–
CC(=O)N1CCC[C@]12CC=CCCCC1(CCCC=CCCCCCC[C@@](C)(C(=O)N[C@@H](Cc3ccccc3)C(=O)N[C@@H](Cc3c[nH]c4ccccc34)C(=O)N[C@@H](CCC(N)=O)C(N)=O)NC(=O)[C@H](C(C)C)NC(=O)[C@H](Cc3cc(F)c(F)c(F)c3)NC(=O)[C@H](C)NC(=O)[C@H](C)NC(=O)[C@H](CCC(=O)O)NC(=O)[C@H](CC(=O)O)NC1=O)NC(=O)[C@H](C)NC(=O)[C@H](CC(=O)O)NC2=O (stereo partly drawn) [I-209, Ac-PL3-Asp-Ala-B5-Asp-Glu-Ala-Ala-345FF-Val-S8-Phe-Trp-Gln-NH2]	1400 nM	2.088	–
CC(=O)N1CCC[C@]12CC=CCCCC1(CCCC=CCCCCCC[C@@](C)(C(=O)N[C@@H](Cc3ccccc3)C(=O)N[C@@H](Cc3c[nH]c4ccccc34)C(=O)N[C@@H](CCC(N)=O)C(N)=O)NC(=O)[C@H](C(C)C)NC(=O)[C@H](Cc3cc(F)c(F)c(F)c3)NC(=O)[C@H](C)NC(=O)[C@H](C)NC(=O)[C@H](CCC(=O)O)NC(=O)[C@H](CC(=O)O)NC1=O)NC(=O)[C@H](C)NC(=O)[C@H](CC(=O)O)NC2=O (stereo partly drawn) [I-210, Ac-PL3-Asp-Ala-B5-Asp-Glu-Ala-Ala-345FF-Val-S8-Phe-Trp-Gln-NH2]	1400 nM	2.088	–
CC(=O)N1CCC[C@]12CC=CCCCC1(CCCC=CCCCCCC[C@@](C)(C(=O)N[C@@H](Cc3ccccc3)C(=O)N[C@@H](Cc3c[nH]c4ccccc34)C(=O)N[C@@H](CCC(N)=O)C(N)=O)NC(=O)[C@H](C(C)C)NC(=O)[C@H](Cc3cc(F)c(F)c(F)c3)NC(=O)[C@H](C)NC(=O)[C@H](C)NC(=O)[C@H](CCC(=O)O)NC(=O)[C@H](CC(=O)O)NC1=O)NC(=O)[C@H](C)NC(=O)[C@H](CC(=O)O)NC2=O (stereo partly drawn) [I-212, Ac-PL3-Asp-Ala-B5-Asp-Glu-Ala-Ala-345FF-Val-S8-Phe-Trp-Gln-NH2]	367 nM	2.101	–
CC(=O)N[C@@H](Cc1ccccc1)C(=O)N[C@@H](CC(=O)O)C(=O)N[C@@H](C)C(=O)N[C@]1(C)CCCCCCC=CCOC(=O)N2CC[C@@](C(=O)N[C@@H](Cc3ccccc3)C(=O)N[C@@H](Cc3c[nH]c4ccccc34)C(=O)N[C@@H](CCC(N)=O)C(N)=O)(C2)NC(=O)[C@H]([C@@H](C)O)NC(=O)[C@H](Cc2ccccc2)NC(=O)[C@H](C)NC(=O)[C@H](C)NC(=O)[C@H](CC(=O)O)NC(=O)[C@H](CC(=O)O)NC1=O [I-221, Ac-Phe-Asp-Ala-R8-Asp-Asp-Ala-Ala-Phe-Thr-PyrS-Phe-Trp-Gln-NH2]	6580 nM	1.34	–
CC(=O)N[C@@H](Cc1ccccc1)C(=O)N[C@@H](CC(=O)O)C(=O)N[C@@H](C)C(=O)N[C@]1(C)CCCCCCC=CCOC(=O)N2CC[C@@](C(=O)N[C@@H](Cc3ccccc3)C(=O)N[C@@H](Cc3c[nH]c4ccccc34)C(=O)N[C@@H](CCC(N)=O)C(N)=O)(C2)NC(=O)[C@H]([C@@H](C)O)NC(=O)[C@H](Cc2ccccc2)NC(=O)[C@H](C)NC(=O)[C@H](C)NC(=O)[C@H](CC(=O)O)NC(=O)[C@H](CC(=O)O)NC1=O [I-223, Ac-Phe-Asp-Ala-R8-Asp-Asp-Ala-Ala-Phe-Thr-PyrS-Phe-Trp-Gln-NH2]	4120 nM	1.401	–

More lines, in order of falling EC50 [1], values ahead:

EC50 [1]	CHI Log D (CHI Log D procedure)	chromatographic logD (CHI Log D procedure)	Structure (SMILES)
6580 nM	1.34	–	CC(=O)N[C@@H](Cc1ccccc1)C(=O)N[C@@H](CC(=O)O)C(=O)N[C@@H](C)C(=O)N[C@]1(C)CCCCCCC=CCOC(=O)N2CC[C@@](C(=O)N[C@@H](Cc3ccccc3)C(=O)N[C@@H](Cc3c[nH]c4ccccc34)C(=O)N[C@@H](CCC(N)=O)C(N)=O)(C2)NC(=O)[C@H]([C@@H](C)O)NC(=O)[C@H](Cc2ccccc2)NC(=O)[C@H](C)NC(=O)[C@H](C)NC(=O)[C@H](CC(=O)O)NC(=O)[C@H](CC(=O)O)NC1=O [I-222, Ac-Phe-Asp-Ala-R8-Asp-Asp-Ala-Ala-Phe-Thr-PyrS-Phe-Trp-Gln-NH2]
6160 nM	–	2.94	CC(=O)N1CCC[C@]12CC=CCCCC1(CCCC=CCCCCCC[C@@](C)(C(=O)N[C@@H](Cc3ccccc3)C(=O)N[C@@H](Cc3c[nH]c4ccccc34)C(=O)N[C@@H](CCC(N)=O)C(N)=O)NC(=O)[C@H](C(C)C)NC(=O)[C@H](Cc3ccccc3)NC(=O)[C@H](C)NC(=O)[C@H](C)NC(=O)[C@H](CCC(=O)O)NC(=O)[C@H](CC(=O)O)NC1=O)NC(=O)[C@H](C)NC(=O)[C@H](Cc1ccccc1)NC2=O (stereo partly drawn) [I-201, Ac-PL3-Phe-Ala-B5-Asp-Glu-Ala-Ala-Phe-Val-S8-Phe-Trp-Gln-NH2]
6150 nM	3.809	–	CC(=O)N1CCC[C@]12CC=CCCCC1(CCCC=CCCCCCC[C@@](C)(C(=O)N[C@@H](Cc3ccccc3)C(=O)N[C@@H](Cc3c[nH]c4ccccc34)C(=O)N[C@@H](CCC(N)=O)C(N)=O)NC(=O)[C@H](C(C)C)NC(=O)[C@H](Cc3ccccc3)NC(=O)[C@H](C)NC(=O)[C@H](C)NC(=O)[C@H](CCC(=O)O)NC(=O)[C@H](CCc3ccccc3)NC1=O)NC(=O)[C@H](C)NC(=O)[C@H](CC(=O)O)NC2=O (stereo partly drawn) [I-197, Ac-PL3-Asp-Ala-B5-hPhe-Glu-Ala-Ala-Phe-Val-S8-Phe-Trp-Gln-NH2]
2140 nM	–	2.41	CC(=O)N1CCC[C@]12CC=CCCCC1(CCCC=CCCCCCC[C@@](C)(C(=O)N[C@@H](Cc3ccccc3)C(=O)N[C@@H](Cc3c[nH]c4ccccc34)C(=O)N[C@@H](CCC(N)=O)C(N)=O)NC(=O)[C@H](C(C)C)NC(=O)[C@H](Cc3ccccc3)NC(=O)[C@H](C)NC(=O)[C@H](C)NC(=O)[C@H](CCC(=O)O)NC(=O)[C@H](Cc3c[nH]cn3)NC1=O)NC(=O)[C@H](C)NC(=O)[C@H](CC(=O)O)NC2=O (stereo partly drawn) [I-206, Ac-PL3-Asp-Ala-B5-His-Glu-Ala-Ala-Phe-Val-S8-Phe-Trp-Gln-NH2]
367 nM	2.101	–	CC(=O)N1CCC[C@]12CC=CCCCC1(CCCC=CCCCCCC[C@@](C)(C(=O)N[C@@H](Cc3ccccc3)C(=O)N[C@@H](Cc3c[nH]c4ccccc34)C(=O)N[C@@H](CCC(N)=O)C(N)=O)NC(=O)[C@H](C(C)C)NC(=O)[C@H](Cc3cc(F)c(F)c(F)c3)NC(=O)[C@H](C)NC(=O)[C@H](C)NC(=O)[C@H](CCC(=O)O)NC(=O)[C@H](CC(=O)O)NC1=O)NC(=O)[C@H](C)NC(=O)[C@H](CC(=O)O)NC2=O (stereo partly drawn) [I-211, Ac-PL3-Asp-Ala-B5-Asp-Glu-Ala-Ala-345FF-Val-S8-Phe-Trp-Gln-NH2]
173 nM	2.278	–	CC(=O)N1CCC[C@]12CC=CCCCC1(CCCC=CCCCCCC[C@@](C)(C(=O)N[C@@H](Cc3ccccc3)C(=O)N[C@@H](Cc3c[nH]c4ccccc34)C(=O)N[C@@H](CCC(N)=O)C(N)=O)NC(=O)[C@H](C(C)C)NC(=O)[C@H](Cc3ccccc3)NC(=O)[C@H](C)NC(=O)[C@H](C)NC(=O)[C@H](CCC(=O)O)NC(=O)[C@H](CC(=O)O)NC1=O)NC(=O)[C@H](C)NC(=O)[C@H](CC(N)=O)NC2=O (stereo partly drawn) [I-200, Ac-PL3-Asn-Ala-B5-Asp-Glu-Ala-Ala-Phe-Val-S8-Phe-Trp-Gln-NH2]
